Results on one compound are retold here after patent EP4663640A1 (Shanghai Institute of Materia Medica, Chinese Academy of …, priority 2023, dated 2024).

Read-outs that look alike come from different tables or passages of the source.

One data set addresses T1, hTRPC5 (Homo sapiens, UniProt Q9UL62).
T1 construct: expressed in transfected cells; host or cells: HEK-293
T1 sequence (Q9UL62 1-973): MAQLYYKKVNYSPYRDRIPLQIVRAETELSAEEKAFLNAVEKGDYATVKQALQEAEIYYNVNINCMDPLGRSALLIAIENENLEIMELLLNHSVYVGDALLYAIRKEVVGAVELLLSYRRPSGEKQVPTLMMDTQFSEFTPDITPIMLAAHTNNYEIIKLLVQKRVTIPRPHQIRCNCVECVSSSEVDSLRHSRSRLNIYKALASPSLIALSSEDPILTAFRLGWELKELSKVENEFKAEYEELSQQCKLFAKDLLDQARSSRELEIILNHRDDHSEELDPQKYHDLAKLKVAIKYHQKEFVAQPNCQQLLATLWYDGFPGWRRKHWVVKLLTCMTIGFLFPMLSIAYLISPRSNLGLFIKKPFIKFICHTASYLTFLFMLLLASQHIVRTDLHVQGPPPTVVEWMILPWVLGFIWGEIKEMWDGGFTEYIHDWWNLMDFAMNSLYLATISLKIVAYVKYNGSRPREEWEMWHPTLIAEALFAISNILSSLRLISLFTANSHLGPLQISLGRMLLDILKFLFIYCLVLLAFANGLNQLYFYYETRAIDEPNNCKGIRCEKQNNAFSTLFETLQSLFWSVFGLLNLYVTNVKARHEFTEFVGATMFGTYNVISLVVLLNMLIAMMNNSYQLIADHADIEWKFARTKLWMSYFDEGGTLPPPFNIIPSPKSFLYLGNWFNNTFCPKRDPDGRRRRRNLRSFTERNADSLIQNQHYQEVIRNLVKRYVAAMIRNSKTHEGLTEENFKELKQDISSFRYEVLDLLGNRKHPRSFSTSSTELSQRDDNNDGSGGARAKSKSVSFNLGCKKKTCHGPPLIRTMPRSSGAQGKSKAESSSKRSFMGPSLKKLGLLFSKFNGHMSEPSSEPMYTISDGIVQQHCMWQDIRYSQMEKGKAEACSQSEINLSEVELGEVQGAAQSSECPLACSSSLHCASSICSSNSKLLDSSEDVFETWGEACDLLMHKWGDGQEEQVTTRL
In words: TRPC5 inhibitory activity assay (FLIPR calcium fluorescence, Englerin A stimulation). It counts as cell-based. As to the method:
HEK-293 cells expressing hTRPC3, hTRPC4 or hTRPC5 were seeded into black-bottomed 96-well plates coated with poly-lysine (PDL), with 2×10^4 cells per well. After 8 h of culture, the original culture medium was discarded, and 60 µL of Fluo-4/AM dye with a final concentration of 4 µM was added. The plates were incubated at 37 °C for 60 min, and then rinsed five times with calcium flow detection buffer. […] Then, the agonist Englerin A (EA) (MedChemExpress, Shanghai, China, final concentration of 0.3nM) was added, and the fluorescence signal was collected for 600 seconds. The fluorescence signal of the trajectory diagram is represented by F/F0, wherein F is the fluorescence signal at different time points, and F0 is the basic fluorescence signal, that is, the average value of the fluorescence signal at the first 10 time points. […] The area under the curve of the change in fluorescence intensity after adding EA was calculated. IC50 value was calculated using log[Inhibitor] vs. response - Variable slope, taking into account the area under the curve and the log value of the concentration of the compound.

The next data set addresses T2, hERG channel (Homo sapiens, UniProt Q12809).
T2 construct: expressed in transfected cells; host or cells: CHO
Put plainly: hERG channel inhibition assay (Qpatch whole-cell recording, CHO cells expressing hERG). To be noted: Table 3; highest test concentration 40 µM; read-out: inhibitory activity IC50 hERG. The data set is classed as cell-based. The method, then:
(§1) CHO cells expressing hERG protein were cultured in 175cm^2 culture flasks. When the cell density grew to 60-80%, the culture medium was removed, and the cells were washed with 7mL PBS, and then 3mL Detachin was added for digestion. After digestion was complete, 7mL culture medium was added for neutralization, and then centrifuged, the supernatant was aspirated, and 5mL culture medium was added for resuspending to ensure that the cell density was 2-5×10^6/mL.
(§2) The single-cell high-impedance sealing and whole-cell pattern formation process were all automatically completed by the Qpatch instrument. After obtaining the whole-cell recording mode, the cell was clamped at -80 mV. […] This voltage stimulus was applied every 15 seconds. After recording for 2 minutes, the extracellular solution was recorded for 2 minutes, and then the drug administration process began. The compound concentration started from the lowest test concentration, and each test concentration was given for 2 minutes. After all concentrations were given continuously, the positive control compound 10 µM Cisapride was given. At least 3 cells (n≥3) were tested for each concentration.
(§3) The stock solution of compound was diluted with extracellular solution, 5 µL of 20 mM compound stock solution was added to 2495 µL of extracellular solution, 500 times diluted to 40 µM, and then 3 times serial dilution was performed in the extracellular solution containing 0.2% DMSO to obtain the final concentration to be tested.
(§4) (5) Data analysis: The experimental data were analyzed by XLFit software.

Data set [1] concerns the target T3, hERG channel (relative to TRPC5) (Homo sapiens, UniProt Q12809).
T3 construct: expressed in transfected cells; host or cells: CHO
Described as above. To be noted: human, CHO cells expressing hERG; ratio of IC50 values. It counts as cell-based. The method, then: as §1, §2, §3, §4

The nature of data set [2]: Preliminary pharmacokinetic evaluation, plasma drug concentration after oral administration to mice. It counts as in vivo, ICR mice. To be noted: male, ICR, mouse, oral 10 mg/kg, Mean ± SD, N = 3. As to the method: The test compound was prepared according to the following solvent: an aqueous solution of DMSO/Tween 80/0.5% (m/v) CMC-Na at a ratio of 2:2:96 (v/v/v), with a drug concentration of 1 mg/mL. Then, the test compound was gavaged to mice at a dosage of 10 mL/kg, with a dose of 10 mg/kg. Each compound was administered to 3 mice. At 1h and 4h after administration, about 50 µL of blood was collected from the orbital venous plexus of the mouse and placed in a centrifuge tube containing EDTA-K2 anticoagulant.

T3 sequence (Q12809 whole entry): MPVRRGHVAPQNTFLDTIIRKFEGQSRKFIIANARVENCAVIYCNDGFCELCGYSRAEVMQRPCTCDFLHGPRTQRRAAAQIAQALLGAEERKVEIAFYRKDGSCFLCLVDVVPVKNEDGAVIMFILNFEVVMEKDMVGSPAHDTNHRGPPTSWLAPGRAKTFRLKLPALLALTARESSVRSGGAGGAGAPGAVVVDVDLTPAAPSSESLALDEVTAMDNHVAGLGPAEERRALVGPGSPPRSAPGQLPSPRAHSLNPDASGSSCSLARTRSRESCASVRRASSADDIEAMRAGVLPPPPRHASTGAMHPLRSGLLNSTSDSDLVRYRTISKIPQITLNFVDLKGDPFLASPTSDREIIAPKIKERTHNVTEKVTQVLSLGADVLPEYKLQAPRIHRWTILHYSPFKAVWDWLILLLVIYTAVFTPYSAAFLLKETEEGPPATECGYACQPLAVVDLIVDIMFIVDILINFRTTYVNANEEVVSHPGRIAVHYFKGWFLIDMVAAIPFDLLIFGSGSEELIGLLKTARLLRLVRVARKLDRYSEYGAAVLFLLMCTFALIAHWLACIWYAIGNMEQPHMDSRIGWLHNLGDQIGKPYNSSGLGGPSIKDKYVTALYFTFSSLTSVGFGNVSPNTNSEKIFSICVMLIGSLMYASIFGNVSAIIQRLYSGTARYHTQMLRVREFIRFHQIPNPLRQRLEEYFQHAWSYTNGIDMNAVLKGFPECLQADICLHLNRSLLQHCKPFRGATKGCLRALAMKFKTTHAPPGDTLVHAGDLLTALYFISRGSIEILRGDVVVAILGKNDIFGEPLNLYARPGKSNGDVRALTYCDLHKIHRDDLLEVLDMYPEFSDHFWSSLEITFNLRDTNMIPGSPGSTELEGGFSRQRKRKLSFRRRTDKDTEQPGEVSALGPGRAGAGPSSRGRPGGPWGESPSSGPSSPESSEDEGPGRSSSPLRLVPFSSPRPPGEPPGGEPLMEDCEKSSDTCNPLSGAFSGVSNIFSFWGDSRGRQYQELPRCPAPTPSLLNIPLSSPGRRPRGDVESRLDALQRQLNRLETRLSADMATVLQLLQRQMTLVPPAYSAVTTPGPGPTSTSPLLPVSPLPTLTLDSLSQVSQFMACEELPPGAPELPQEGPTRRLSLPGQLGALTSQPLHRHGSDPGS
T2 sequence (Q12809 whole entry): as above

For `Cn1c(=O)n(CCCO)c(=O)c2c1nc(C1(F)CCC(F)(F)CC1)n2Cc1ccc(C(F)(F)F)cc1` [Example E60, 1-(3-hydroxypropyl)-3-methyl-8-(1,4,4-trifluorocyclohexyl)-7-(4-(trifluoromethyl)benzyl)-3,7-dihydro-1H-purine-2,6-dione], the IC50 was determined as 6.87 nM on hTRPC5 (Table 1, TRPC5 channels, HEK-293 cells expressing hTRPC5, read-out: FLIPR IC50); 6.9 nM at hTRPC5 (Table 3, read-out: inhibitory activity IC50 TRPC5); 13300 nM on hERG channel. In data set [1], the selectivity ratio at 2 min was determined as 1940. The concentration at 1 h in data set [2] (1h) was found to be 1310 ± 45 ng/mL. The compound also came in with a concentration at 4 h in data set [2] (4h) of 1180 ± 163 ng/mL.
